A value given as a limit tells only on which side of the number the result lay.

One may read the IC50 as the concentration needed to halve the response being measured. For orientation: Ki means the equilibrium dissociation constant of an inhibitor or competing ligand from its target. Broadly, the bioavailability is dose-corrected exposure relative to a reference, in per cent. What is called clearance is the volume of plasma or blood freed of the substance per unit of time. For orientation: half-life means how long it takes for the measured level to halve. Usually pKa stands for the negative logarithm of the acid dissociation constant.

Data set [1] concerns the target T1, Rho-associated protein kinase 1 (Homo sapiens, UniProt Q13464). Briefly: Displacement of Y-27632 from ROCK-1 assessed as drop in intensity of binding signals by NMR competition experiment. Further details: concentration or dose not given beside the values.
Target sequence in this assay (Q13464 2-1354 limits assumed): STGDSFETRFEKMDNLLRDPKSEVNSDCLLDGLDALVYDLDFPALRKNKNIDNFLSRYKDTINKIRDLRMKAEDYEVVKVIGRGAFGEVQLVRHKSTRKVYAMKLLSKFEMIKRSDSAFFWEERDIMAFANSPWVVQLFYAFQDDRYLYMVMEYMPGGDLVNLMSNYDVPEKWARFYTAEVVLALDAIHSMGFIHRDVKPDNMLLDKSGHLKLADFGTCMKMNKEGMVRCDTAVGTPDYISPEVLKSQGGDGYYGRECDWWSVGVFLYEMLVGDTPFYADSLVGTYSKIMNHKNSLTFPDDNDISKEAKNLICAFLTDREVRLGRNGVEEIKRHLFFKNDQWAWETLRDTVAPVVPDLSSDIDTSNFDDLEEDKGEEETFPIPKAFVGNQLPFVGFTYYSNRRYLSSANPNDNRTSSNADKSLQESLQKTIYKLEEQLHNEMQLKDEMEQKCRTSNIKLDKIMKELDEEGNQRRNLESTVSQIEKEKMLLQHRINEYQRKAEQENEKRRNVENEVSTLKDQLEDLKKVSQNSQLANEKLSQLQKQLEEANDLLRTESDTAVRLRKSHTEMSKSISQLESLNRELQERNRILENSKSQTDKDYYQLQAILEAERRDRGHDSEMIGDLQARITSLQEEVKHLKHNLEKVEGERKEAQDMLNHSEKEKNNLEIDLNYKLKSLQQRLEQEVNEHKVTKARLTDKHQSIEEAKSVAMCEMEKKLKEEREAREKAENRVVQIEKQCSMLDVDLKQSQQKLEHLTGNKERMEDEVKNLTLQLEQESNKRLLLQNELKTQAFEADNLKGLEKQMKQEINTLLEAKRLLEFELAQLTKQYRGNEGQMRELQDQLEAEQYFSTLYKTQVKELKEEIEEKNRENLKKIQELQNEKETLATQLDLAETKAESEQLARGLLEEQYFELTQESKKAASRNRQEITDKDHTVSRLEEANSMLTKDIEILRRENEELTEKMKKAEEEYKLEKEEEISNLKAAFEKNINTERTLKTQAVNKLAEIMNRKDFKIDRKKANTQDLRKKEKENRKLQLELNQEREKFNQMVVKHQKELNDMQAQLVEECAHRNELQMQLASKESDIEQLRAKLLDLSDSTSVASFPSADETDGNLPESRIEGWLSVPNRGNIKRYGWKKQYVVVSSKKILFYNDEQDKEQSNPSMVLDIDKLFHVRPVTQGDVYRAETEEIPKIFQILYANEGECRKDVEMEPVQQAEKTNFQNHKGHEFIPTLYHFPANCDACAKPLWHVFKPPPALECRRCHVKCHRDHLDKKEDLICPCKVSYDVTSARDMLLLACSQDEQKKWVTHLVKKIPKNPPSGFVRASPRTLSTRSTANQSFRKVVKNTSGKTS
The target of data set [2] is T1, Rho-associated protein kinase 1. Briefly: Inhibition of ROCK-1 by Immobilized metal ion affinity-based fluorescence polarization assay.
Target sequence in this assay (Q13464 whole entry): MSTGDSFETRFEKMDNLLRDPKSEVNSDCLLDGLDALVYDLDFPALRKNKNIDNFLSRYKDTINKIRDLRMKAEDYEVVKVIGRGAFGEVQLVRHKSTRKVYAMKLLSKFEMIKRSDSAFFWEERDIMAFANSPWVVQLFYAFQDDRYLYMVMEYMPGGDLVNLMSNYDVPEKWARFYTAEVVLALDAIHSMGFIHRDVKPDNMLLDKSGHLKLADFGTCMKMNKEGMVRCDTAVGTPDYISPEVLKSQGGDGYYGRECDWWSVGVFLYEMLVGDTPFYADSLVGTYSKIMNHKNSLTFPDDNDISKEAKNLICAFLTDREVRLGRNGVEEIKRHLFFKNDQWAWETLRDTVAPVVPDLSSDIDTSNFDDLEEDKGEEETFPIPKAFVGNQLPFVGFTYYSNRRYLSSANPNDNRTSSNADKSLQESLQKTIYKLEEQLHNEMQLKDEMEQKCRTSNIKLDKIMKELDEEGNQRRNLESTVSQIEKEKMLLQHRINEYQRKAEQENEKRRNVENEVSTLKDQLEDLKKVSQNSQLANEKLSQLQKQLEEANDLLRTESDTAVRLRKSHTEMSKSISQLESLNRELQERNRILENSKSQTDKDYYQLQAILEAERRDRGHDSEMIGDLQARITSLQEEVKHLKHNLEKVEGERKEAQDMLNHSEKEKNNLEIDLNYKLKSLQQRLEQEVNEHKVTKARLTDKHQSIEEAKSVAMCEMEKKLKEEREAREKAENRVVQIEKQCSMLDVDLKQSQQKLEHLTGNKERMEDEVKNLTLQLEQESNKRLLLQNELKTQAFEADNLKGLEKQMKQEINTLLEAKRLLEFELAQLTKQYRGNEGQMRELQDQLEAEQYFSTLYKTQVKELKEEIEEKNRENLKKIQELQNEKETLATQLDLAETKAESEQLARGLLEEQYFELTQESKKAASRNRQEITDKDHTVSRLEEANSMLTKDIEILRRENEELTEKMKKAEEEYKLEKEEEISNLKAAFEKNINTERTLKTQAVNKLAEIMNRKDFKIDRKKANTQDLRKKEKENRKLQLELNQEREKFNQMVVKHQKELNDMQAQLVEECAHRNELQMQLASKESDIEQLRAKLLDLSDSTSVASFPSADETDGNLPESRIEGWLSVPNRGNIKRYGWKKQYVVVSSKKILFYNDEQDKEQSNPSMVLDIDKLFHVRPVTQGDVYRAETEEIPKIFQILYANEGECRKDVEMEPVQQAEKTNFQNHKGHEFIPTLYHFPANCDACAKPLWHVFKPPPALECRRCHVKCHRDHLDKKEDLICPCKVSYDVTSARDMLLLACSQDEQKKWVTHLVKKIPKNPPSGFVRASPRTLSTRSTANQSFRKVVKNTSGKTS
The target of data set [3] is Voltage-gated inwardly rectifying potassium channel KCNH2 (Homo sapiens, UniProt Q12809). Put plainly: Displacement of [3H]dofetilide from human ERG. A general note: Loss of bound radioactivity is the signal in a displacement assay; it reports binding, not function.
Voltage-gated inwardly rectifying potassium channel KCNH2, sequence (Q12809 whole entry): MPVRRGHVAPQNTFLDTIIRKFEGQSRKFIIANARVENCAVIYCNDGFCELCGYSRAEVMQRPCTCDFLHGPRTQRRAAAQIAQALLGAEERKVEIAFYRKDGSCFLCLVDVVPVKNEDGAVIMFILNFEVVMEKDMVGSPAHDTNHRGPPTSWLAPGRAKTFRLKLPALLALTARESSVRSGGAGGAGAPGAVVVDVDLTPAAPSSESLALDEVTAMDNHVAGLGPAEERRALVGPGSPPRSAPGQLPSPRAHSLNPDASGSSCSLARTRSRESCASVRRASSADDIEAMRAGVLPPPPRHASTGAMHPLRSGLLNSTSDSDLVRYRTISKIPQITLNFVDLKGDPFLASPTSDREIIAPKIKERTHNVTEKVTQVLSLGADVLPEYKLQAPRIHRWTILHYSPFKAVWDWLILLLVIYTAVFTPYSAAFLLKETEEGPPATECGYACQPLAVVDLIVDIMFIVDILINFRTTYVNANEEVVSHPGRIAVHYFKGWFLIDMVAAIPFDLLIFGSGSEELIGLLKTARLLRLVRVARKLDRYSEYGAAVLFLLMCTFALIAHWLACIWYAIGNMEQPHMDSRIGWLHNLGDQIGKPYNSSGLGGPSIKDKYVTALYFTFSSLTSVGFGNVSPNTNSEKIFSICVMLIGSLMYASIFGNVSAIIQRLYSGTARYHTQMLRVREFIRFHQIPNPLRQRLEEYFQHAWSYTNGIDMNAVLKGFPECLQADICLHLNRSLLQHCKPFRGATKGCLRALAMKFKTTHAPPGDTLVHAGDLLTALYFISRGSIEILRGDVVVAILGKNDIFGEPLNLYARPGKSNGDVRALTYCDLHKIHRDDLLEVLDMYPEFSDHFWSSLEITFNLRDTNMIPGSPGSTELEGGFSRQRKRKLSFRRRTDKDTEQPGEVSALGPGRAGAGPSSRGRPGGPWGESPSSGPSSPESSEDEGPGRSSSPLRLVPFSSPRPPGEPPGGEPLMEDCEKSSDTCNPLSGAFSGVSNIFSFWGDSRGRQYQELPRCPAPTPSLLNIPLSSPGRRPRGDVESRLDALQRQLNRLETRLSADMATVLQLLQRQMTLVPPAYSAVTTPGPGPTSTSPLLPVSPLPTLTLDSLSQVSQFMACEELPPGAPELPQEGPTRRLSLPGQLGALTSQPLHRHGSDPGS
A short description of data set [4]: Oral bioavailability in C57 mouse. The format is ADME, organism-based. Conditions: in vivo.
Data set [5] is described as follows: Plasma clearance in C57 mouse. Type of data set: ADME, organism-based.
Data set [6] can be described thus: Volume of distribution at steady state in C57 mouse. Conditions: in vivo, read-out: Vdss. Type of data set: ADME, organism-based.
The nature of data set [7]: Half life in C57 mouse. Type of data set: ADME, organism-based. Conditions: in vivo.
Data set [8] is described as follows: Half life in human liver microsome. The format is ADME. Conditions: liver microsomes. For orientation: Liver microsomes are vesicles of endoplasmic reticulum, rich in cytochrome P450 enzymes.
The nature of data set [9]: Half life in rat liver microsome. Type of data set: ADME. Conditions: liver microsomes.
A short description of data set [10]: Half life in mouse liver microsome. The format is ADME. Conditions: liver microsomes.
Data set [11] can be described thus: Half life in rat hepatocyte. The format is ADME, cell-based, Liver. Conditions: hepatocytes.
Data set [12] in a line: Permeability from apical to basolateral side of human Caco2 cells. The format is ADME, cell-based. Conditions: Caco-2, read-out: permeability. In general terms: Caco-2 cells form a polarised layer with tight junctions and transporters.
Data set [13] can be described thus: Permeability from basolateral to apical side of human Caco2 cells. Type of data set: ADME, cell-based. Conditions: Caco-2, read-out: permeability.
Data set [14] in a line: Oral bioavailability in Wistar rat. The format is ADME, organism-based. Conditions: in vivo.
The nature of data set [15]: Plasma clearance in Wistar rat. The format is ADME, organism-based.
Data set [16] can be described thus: Volume of distribution at steady state in Wistar rat. Type of data set: ADME, organism-based. Conditions: in vivo, read-out: Vdss.
A short description of data set [17]: Half life in Wistar rat. The format is ADME, organism-based. Conditions: in vivo.
For data set [18], the target named is T1, Rho-associated protein kinase 1. Put plainly: Inhibition of ROCK-1.
Target sequence in this assay (Q13464 whole entry): as the sequence (Q13464 whole entry) above
Data set [19] concerns the target Rho-associated protein kinase 2 (Homo sapiens, UniProt O75116). Briefly: Inhibition of ROCK-2 by Immobilized metal ion affinity-based fluorescence polarization assay.
Data set [20] in a line: Dissociation constant, pKa of the compound. The format is physicochemical.

For the compound `c1ccc2[nH]ncc2c1`, the Activity in data set [1] is over 80%.
With `c1ccc2[nH]cnc2c1`, in data set [1], the Activity was found to be 64%.
For the compound `Nc1nccc2cc(CNCCc3ccc(Cl)c(Cl)c3)ccc12`, the concentration for half-maximal inhibition (IC50) in [2] is 776 nM.
The compound `O=S(=O)(c1cccc2c(O)nccc12)N1CCCNCC1` [HYDROXYFASUDIL] gave a Ki in data set [3] of 7.94 µM. Moreover, the bioavailability in data set [4] was 57%. Moreover, the clearance in [5] stood at 34 mL/min/kg. Further, the Vd in data set [6] was 2.4 L/kg. The half-life in [7] is 45 min.
The compound `Nc1nccc2cc(OC3CCNCC3)ccc12` gave an IC50 in data set [2] of 3630 nM.
As to `Nc1ncnc2ccccc12`, the Activity in data set [1] was over 80%.
`C[C@@H](N)[C@H]1CC[C@H](C(=O)Nc2ccncc2)CC1` [Y-27632]: in data set [4], the bioavailability came to 52%. Further, the clearance in [5] was 50.9 mL/min/kg. The Vd in data set [6] worked out at 3.8 L/kg. Further, in data set [7], the half-life is 100 min.
As for `Nc1nccc2cc(CNCCc3ccncc3)ccc12`, in data set [2], 1860 nM corresponded to half-maximal inhibition (IC50).
`CC(=O)c1ccccc1`: in data set [1], the Activity was 60%.
In data set [2], `Cc1ccc(CCNCc2ccc3c(N)nccc3c2)cc1` showed an IC50 of 813 nM.
For `c1cc(-c2cnco2)ccn1`, the Activity in data set [1] is over 80%.
In [2], `Nc1nccc2cc(CNCCc3cccc(C(F)(F)F)c3)ccc12` gave an IC50 of 1700 nM.
`Nc1nccc2cc(CNCc3ccc4ccccc4c3)ccc12` showed an IC50 in data set [2] of 3470 nM.
In the case of `NC(=O)c1ccccc1O`, the Activity in data set [1] turned out to be 34%.
Consider `CN(CCc1ccccc1)Cc1ccc2c(N)nccc2c1`, for which, in data set [2], the IC50 is 427 nM.
With `Nc1nccc2cc(O[C@H]3CCCN(Cc4ccccc4)C3)ccc12`, the half-life in data set [8] is 12 min; in [9], 22 min; in data set [10], over 120 min; in [11], 27 min; in data set [17], 492 min. Besides, the Papp A→B in data set [12] came to 2.2 ×10⁻⁶ cm/s. Further, the Papp B→A in [13] came to 1.5 ×10⁻⁶ cm/s. The bioavailability in [14] stood at 7%. Besides, the clearance in data set [15] was 295 mL/min/kg. In addition, the Vd in data set [16] is 8.2 L/kg.
For the compound `c1ccc2cnccc2c1`, in data set [1], the Activity came to 70%.
Take `Nc1nccc2cc(CNCCc3ccccc3)ccc12`: the IC50 in [2] and in data set [19] was 1290 nM each time. Besides, the Ki is 63.1 nM in data set [18] and 3.16 µM in data set [3].
On to `Cn1nc(C(C)(C)C)cc1N`, for which, in [1], the Activity is 20%.
On the same count and under the same terms, under `O=C(Nc1nccs1)c1ccncc1` stands over 80%; under `Nc1nc2c(c(=O)[nH]1)CC=N2`, 68%.
In the case of `Nc1nccc2cc(CNCc3cccc(Oc4ccccc4)c3)ccc12`, the IC50 in data set [2] is 575 nM.
In data set [2], `NCc1ccc2c(N)nccc2c1` had an IC50 of 7760 nM. Moreover, the pKa in [20] turned out to be 7.6.
Take `Nc1ccnc2ccncc12`: the Activity in data set [1] is over 80%.
Turning to `Nc1nccc2cc(CNCCOc3ccccc3)ccc12`, the IC50 in data set [2] was 589 nM.
In data set [2], `CS(=O)(=O)N1CCC[C@H](Oc2ccc3c(N)nccc3c2)C1` gave an IC50 of over 100000 nM.
Take `Nc1nccc2cc(OC3CCN(Cc4ccccc4)CC3)ccc12`: the midpoint of inhibition in data set [2], the IC50, lay at 4270 nM.
The compound `O=S(=O)(c1cccc2cnccc12)N1CCCNCC1` [FASUDIL] had a bioavailability in [4] of 3.6%. Moreover, the Vd in data set [6] is 1.8 L/kg.
Regarding `c1ccc(-n2cccc2)nc1`, the Activity in [1] worked out at 30%.
Take `CC1(C)C(=O)Nc2ccccc21`: the Activity in data set [1] stood at 25%.
With `c1ccn2ccnc2c1`, in data set [1], the Activity turned out to be 38%.
As for `COc1ccc(CCNCc2ccc3c(N)nccc3c2)cc1`, half-maximal inhibition in data set [2] (IC50) required 1000 nM.
Take `Nc1nccc2cc(CNCc3ccccc3)ccc12`: inhibition in [2] was half-maximal at 6760 nM (IC50).
Take `CC1=NC(C(C)C)CO1` (configuration not stated): in [1], the Activity came to 40%.
As to `c1cc(N2CCOCC2)ccn1`, the Activity in data set [1] was over 80%.
`Nc1nccc2cc(CNCCNc3ccccc3)ccc12` showed an IC50 in [2] of 1480 nM.

For the origin of these results see ChEMBL document CHEMBL1641363, “Fragment-based discovery of 6-substituted isoquinolin-1-amine based ROCK-I inhibitors” (Bioorg Med Chem Lett, 2011).
